# According to patent US11198713B2, “Agents modulating beta-catenin functions and methods thereof” (FOG PHARMACEUTICALS, INC., priority 2017, dated 2021):
# Target: T1, full-length beta-catenin (Axin site) (Homo sapiens, UniProt P35222)
# T1 construct: 15 nM full-length beta-catenin, 20 nM FITC labeled peptide in buffer
# T1 sequence (P35222 1-781): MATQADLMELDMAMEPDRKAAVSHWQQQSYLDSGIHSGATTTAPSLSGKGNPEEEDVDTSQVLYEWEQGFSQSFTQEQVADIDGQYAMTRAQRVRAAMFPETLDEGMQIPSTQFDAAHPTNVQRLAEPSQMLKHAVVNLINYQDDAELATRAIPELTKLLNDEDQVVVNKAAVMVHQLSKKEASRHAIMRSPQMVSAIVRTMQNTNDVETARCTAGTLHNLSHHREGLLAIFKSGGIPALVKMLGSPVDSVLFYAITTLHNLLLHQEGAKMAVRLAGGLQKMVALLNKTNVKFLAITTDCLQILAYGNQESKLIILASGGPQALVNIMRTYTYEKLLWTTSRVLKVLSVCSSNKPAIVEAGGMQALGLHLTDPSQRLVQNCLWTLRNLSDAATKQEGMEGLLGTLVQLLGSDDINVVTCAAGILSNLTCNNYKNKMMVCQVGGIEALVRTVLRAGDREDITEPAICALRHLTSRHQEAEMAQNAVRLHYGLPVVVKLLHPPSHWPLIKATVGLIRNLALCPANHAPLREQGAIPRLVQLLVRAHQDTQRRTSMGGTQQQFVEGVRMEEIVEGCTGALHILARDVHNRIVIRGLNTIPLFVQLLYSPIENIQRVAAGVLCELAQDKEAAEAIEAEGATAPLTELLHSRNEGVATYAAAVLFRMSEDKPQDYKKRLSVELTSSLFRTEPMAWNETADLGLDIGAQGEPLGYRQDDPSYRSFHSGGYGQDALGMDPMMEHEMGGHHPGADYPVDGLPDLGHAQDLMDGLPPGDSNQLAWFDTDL
# Experiment: Competition fluorescence polarization assay (Axin site probe)
# Assay type: binding
# Details: competition fluorescence polarization, Table 2; read-out: in vitro FP EC50
# Summary of the method: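 Competition FP: 15 nM full-length β-catenin pre-incubated 5 min with 20 nM FITC-labelled stapled Axin-site peptide, then titrated peptide added (3-fold series from 5 μM) for 15 min in the dark. Buffer 50 mM Tris pH 8.0, 250 mM NaCl, 2% glycerol, 0.5 mM EDTA; duplicate reads.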
row,SMILES,EC50
1,"CC[C@H](C)[C@@H]1NC(=O)C2(NC(=O)[C@H](CCC(N)=O)NC(=O)[C@@H]3CCCN3C(C)=O)CN(C2)C(=O)OCC=CCCC[C@@](C)(C(=O)N[C@@H](Cc2c[nH]cn2)C(=O)N[C@H](C(=O)N[C@@H](CCCNC(=N)N)C(=O)N[C@@H](CCCNC(=N)N)C(=O)N[C@H](C(=O)N[C@@H](Cc2c[nH]c3ccccc23)C(=O)N[C@@H](CCCNC(=N)N)C(N)=O)C(C)C)C(C)C)NC(=O)[C@H](CC(=O)O)NC(=O)[C@H](CC(C)C)NC1=O (single isomer, unassigned) [FP0724c, Ac-P-Q-MA-I-L-D-S5-H-V-R-R-V-W-R-NH2]",500 to 5000 nM
2,"CC[C@H](C)[C@@H]1NC(=O)C2(NC(=O)[C@H](CCC(N)=O)NC(=O)[C@@H]3CCCN3C(C)=O)CN(C2)C(=O)OCC=CCCCCC[C@](C)(C(=O)N[C@@H](Cc2c[nH]cn2)C(=O)N[C@H](C(=O)N[C@@H](CCCNC(=N)N)C(=O)N[C@@H](CCCNC(=N)N)C(=O)N[C@H](C(=O)N[C@@H](Cc2c[nH]c3ccccc23)C(=O)N[C@@H](CCCNC(=N)N)C(N)=O)C(C)C)C(C)C)NC(=O)[C@H](CC(=O)O)NC(=O)[C@H](CC(C)C)NC1=O (single isomer, unassigned) [FP0727c, Ac-P-Q-MA-I-L-D-R7-H-V-R-R-V-W-R-NH2]",500 to 5000 nM
3,"CC[C@H](C)[C@@H]1NC(=O)C2(NC(=O)[C@H](CCC(N)=O)NC(=O)[C@@H]3CCCN3C(C)=O)CN(C2)C(=O)OCC=CCCCCC[C@@](C)(C(=O)N[C@@H](Cc2c[nH]cn2)C(=O)N[C@H](C(=O)N[C@@H](CCCNC(=N)N)C(=O)N[C@@H](CCCNC(=N)N)C(=O)N[C@H](C(=O)N[C@@H](Cc2c[nH]c3ccccc23)C(=O)N[C@@H](CCCNC(=N)N)C(N)=O)C(C)C)C(C)C)NC(=O)[C@H](CC(=O)O)NC(=O)[C@H](CC(C)C)NC1=O (single isomer, unassigned) [FP0728c, Ac-P-Q-MA-I-L-D-S7-H-V-R-R-V-W-R-NH2]",500 to 5000 nM
4,"CC[C@H](C)[C@@H]1NC(=O)[C@](C)(NC(=O)[C@H](CCC(N)=O)NC(=O)[C@@H]2CCCN2C(C)=O)CCC=CCOC(=O)N2CC(C(=O)N[C@@H](Cc3c[nH]cn3)C(=O)N[C@H](C(=O)N[C@@H](CCCNC(=N)N)C(=O)N[C@@H](CCCNC(=N)N)C(=O)N[C@H](C(=O)N[C@@H](Cc3c[nH]c4ccccc34)C(=O)N[C@@H](CCCNC(=N)N)C(N)=O)C(C)C)C(C)C)(C2)NC(=O)[C@H](CC(=O)O)NC(=O)[C@H](CC(C)C)NC1=O (single isomer, unassigned) [FP0731c, Ac-P-Q-R4-I-L-D-MA-H-V-R-R-V-W-R-NH2]",500 to 5000 nM
5,"CC[C@H](C)[C@@H]1NC(=O)[C@](C)(NC(=O)[C@H](CCC(N)=O)NC(=O)[C@@H]2CCCN2C(C)=O)CCCCC=CCN2CC(C(=O)N[C@@H](Cc3c[nH]cn3)C(=O)N[C@H](C(=O)N[C@@H](CCCNC(=N)N)C(=O)N[C@@H](CCCNC(=N)N)C(=O)N[C@H](C(=O)N[C@@H](Cc3c[nH]c4ccccc34)C(=O)N[C@@H](CCCNC(=N)N)C(N)=O)C(C)C)C(C)C)(C2)NC(=O)[C@H](CC(=O)O)NC(=O)[C@H](CC(C)C)NC1=O (single isomer, unassigned) [FP0735a, Ac-P-Q-R6-I-L-D-MA-H-V-R-R-V-W-R-NH2]",500 to 5000 nM
6,"CC[C@H](C)[C@@H]1NC(=O)[C@@](C)(NC(=O)[C@H](CCC(N)=O)NC(=O)[C@@H]2CCCN2C(C)=O)CCCCC=CCOC(=O)N2CC(C(=O)N[C@@H](Cc3c[nH]cn3)C(=O)N[C@H](C(=O)N[C@@H](CCCNC(=N)N)C(=O)N[C@@H](CCCNC(=N)N)C(=O)N[C@H](C(=O)N[C@@H](Cc3c[nH]c4ccccc34)C(=O)N[C@@H](CCCNC(=N)N)C(N)=O)C(C)C)C(C)C)(C2)NC(=O)[C@H](CC(=O)O)NC(=O)[C@H](CC(C)C)NC1=O (single isomer, unassigned) [FP0736c, Ac-P-Q-S6-I-L-D-MA-H-V-R-R-V-W-R-NH2]",500 to 5000 nM
7,"CC[C@H](C)[C@@H]1NC(=O)[C@@](C)(NC(=O)[C@H](CCC(N)=O)NC(=O)[C@@H]2CCCN2C(C)=O)CCCCCC=CCOC(=O)N2CC(C(=O)N[C@@H](Cc3c[nH]cn3)C(=O)N[C@H](C(=O)N[C@@H](CCCNC(=N)N)C(=O)N[C@@H](CCCNC(=N)N)C(=O)N[C@H](C(=O)N[C@@H](Cc3c[nH]c4ccccc34)C(=O)N[C@@H](CCCNC(=N)N)C(N)=O)C(C)C)C(C)C)(C2)NC(=O)[C@H](CC(=O)O)NC(=O)[C@H](CC(C)C)NC1=O (single isomer, unassigned) [FP0738c, Ac-P-Q-S7-I-L-D-MA-H-V-R-R-V-W-R-NH2]",500 to 5000 nM

# Results, then the compound that gave them:
row,EC50,SMILES
1,500 to 5000 nM,"CC[C@H](C)[C@@H]1NC(=O)C2(NC(=O)[C@H](CCC(N)=O)NC(=O)[C@@H]3CCCN3C(C)=O)CN(C2)C(=O)OCC=CCCC[C@](C)(C(=O)N[C@@H](Cc2c[nH]cn2)C(=O)N[C@H](C(=O)N[C@@H](CCCNC(=N)N)C(=O)N[C@@H](CCCNC(=N)N)C(=O)N[C@H](C(=O)N[C@@H](Cc2c[nH]c3ccccc23)C(=O)N[C@@H](CCCNC(=N)N)C(N)=O)C(C)C)C(C)C)NC(=O)[C@H](CC(=O)O)NC(=O)[C@H](CC(C)C)NC1=O (single isomer, unassigned) [FP0723c, Ac-P-Q-MA-I-L-D-R5-H-V-R-R-V-W-R-NH2]"
2,500 to 5000 nM,"CC[C@H](C)[C@@H]1NC(=O)C2(NC(=O)[C@H](CCC(N)=O)NC(=O)[C@@H]3CCCN3C(C)=O)CN(CC=CCCCC[C@](C)(C(=O)N[C@@H](Cc3c[nH]cn3)C(=O)N[C@H](C(=O)N[C@@H](CCCNC(=N)N)C(=O)N[C@@H](CCCNC(=N)N)C(=O)N[C@H](C(=O)N[C@@H](Cc3c[nH]c4ccccc34)C(=O)N[C@@H](CCCNC(=N)N)C(N)=O)C(C)C)C(C)C)NC(=O)[C@H](CC(=O)O)NC(=O)[C@H](CC(C)C)NC1=O)C2 (single isomer, unassigned) [FP0725a, Ac-P-Q-MA-I-L-D-R6-H-V-R-R-V-W-R-NH2]"
3,500 to 5000 nM,"CC[C@H](C)[C@@H]1NC(=O)[C@](C)(NC(=O)[C@H](CCC(N)=O)NC(=O)[C@@H]2CCCN2C(C)=O)CCCC=CCOC(=O)N2CC(C(=O)N[C@@H](Cc3c[nH]cn3)C(=O)N[C@H](C(=O)N[C@@H](CCCNC(=N)N)C(=O)N[C@@H](CCCNC(=N)N)C(=O)N[C@H](C(=O)N[C@@H](Cc3c[nH]c4ccccc34)C(=O)N[C@@H](CCCNC(=N)N)C(N)=O)C(C)C)C(C)C)(C2)NC(=O)[C@H](CC(=O)O)NC(=O)[C@H](CC(C)C)NC1=O (single isomer, unassigned) [FP0733c, Ac-P-Q-R5-I-L-D-MA-H-V-R-R-V-W-R-NH2]"
4,> 5000 nM,"CC[C@H](C)[C@@H]1NC(=O)[C@@](C)(NC(=O)[C@H](CCC(N)=O)NC(=O)[C@@H]2CCCN2C(C)=O)CCCC=CCN2CC(C(=O)N[C@@H](Cc3c[nH]cn3)C(=O)N[C@H](C(=O)N[C@@H](CCCNC(=N)N)C(=O)N[C@@H](CCCNC(=N)N)C(=O)N[C@H](C(=O)N[C@@H](Cc3c[nH]c4ccccc34)C(=O)N[C@@H](CCCNC(=N)N)C(N)=O)C(C)C)C(C)C)(C2)NC(=O)[C@H](CC(=O)O)NC(=O)[C@H](CC(C)C)NC1=O (single isomer, unassigned) [FP0734a, Ac-P-Q-S5-I-L-D-MA-H-V-R-R-V-W-R-NH2]"
5,> 5000 nM,"CC[C@H](C)[C@@H]1NC(=O)[C@@](C)(NC(=O)[C@H](CCC(N)=O)NC(=O)[C@@H]2CCCN2C(C)=O)CCCC=CCOC(=O)N2CC(C(=O)N[C@@H](Cc3c[nH]cn3)C(=O)N[C@H](C(=O)N[C@@H](CCCNC(=N)N)C(=O)N[C@@H](CCCNC(=N)N)C(=O)N[C@H](C(=O)N[C@@H](Cc3c[nH]c4ccccc34)C(=O)N[C@@H](CCCNC(=N)N)C(N)=O)C(C)C)C(C)C)(C2)NC(=O)[C@H](CC(=O)O)NC(=O)[C@H](CC(C)C)NC1=O (single isomer, unassigned) [FP0734c, Ac-P-Q-S5-I-L-D-MA-H-V-R-R-V-W-R-NH2]"
6,500 to 5000 nM,"CC[C@H](C)[C@@H]1NC(=O)[C@](C)(NC(=O)[C@H](CCC(N)=O)NC(=O)[C@@H]2CCCN2C(C)=O)CCCCC=CCOC(=O)N2CC(C(=O)N[C@@H](Cc3c[nH]cn3)C(=O)N[C@H](C(=O)N[C@@H](CCCNC(=N)N)C(=O)N[C@@H](CCCNC(=N)N)C(=O)N[C@H](C(=O)N[C@@H](Cc3c[nH]c4ccccc34)C(=O)N[C@@H](CCCNC(=N)N)C(N)=O)C(C)C)C(C)C)(C2)NC(=O)[C@H](CC(=O)O)NC(=O)[C@H](CC(C)C)NC1=O (single isomer, unassigned) [FP0735c, Ac-P-Q-R6-I-L-D-MA-H-V-R-R-V-W-R-NH2]"
7,100 to 500 nM,"CC[C@H](C)[C@@H]1NC(=O)[C@@](C)(NC(=O)[C@H](CCC(N)=O)NC(=O)[C@@H]2CCCN2C(C)=O)CCCCC=CCN2CC(C(=O)N[C@@H](Cc3c[nH]cn3)C(=O)N[C@H](C(=O)N[C@@H](CCCNC(=N)N)C(=O)N[C@@H](CCCNC(=N)N)C(=O)N[C@H](C(=O)N[C@@H](Cc3c[nH]c4ccccc34)C(=O)N[C@@H](CCCNC(=N)N)C(N)=O)C(C)C)C(C)C)(C2)NC(=O)[C@H](CC(=O)O)NC(=O)[C@H](CC(C)C)NC1=O (single isomer, unassigned) [FP0736a, Ac-P-Q-S6-I-L-D-MA-H-V-R-R-V-W-R-NH2]"
